{"source": "ChEMBL document CHEMBL1201862", "about": "“PubChem BioAssay data set” (2004)", "key": {"[1]": {"target": "T1, Mannose-6-phosphate isomerase (Homo sapiens, UniProt P34949)", "T1 sequence (P34949 whole entry)": "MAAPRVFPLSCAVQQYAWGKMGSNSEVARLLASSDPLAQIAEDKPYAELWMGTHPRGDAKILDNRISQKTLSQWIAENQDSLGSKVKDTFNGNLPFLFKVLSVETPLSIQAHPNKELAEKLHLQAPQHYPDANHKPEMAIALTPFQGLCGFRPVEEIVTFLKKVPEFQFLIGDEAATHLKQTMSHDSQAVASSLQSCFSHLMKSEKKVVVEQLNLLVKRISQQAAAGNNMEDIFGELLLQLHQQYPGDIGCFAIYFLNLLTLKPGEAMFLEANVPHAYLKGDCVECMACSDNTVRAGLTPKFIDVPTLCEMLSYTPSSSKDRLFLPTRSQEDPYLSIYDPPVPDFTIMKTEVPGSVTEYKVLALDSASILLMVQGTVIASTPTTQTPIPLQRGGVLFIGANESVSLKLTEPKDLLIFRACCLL", "test": "human PMI inhibitors, high substrate, primary screen, biochemical, fluorescence intensity, high mannose 6-phosphate (AID 1220)"}, "Coagulation factor XII": {"target": "T2, Coagulation factor XII (Homo sapiens, UniProt P00748)", "T2 sequence (P00748 whole entry)": "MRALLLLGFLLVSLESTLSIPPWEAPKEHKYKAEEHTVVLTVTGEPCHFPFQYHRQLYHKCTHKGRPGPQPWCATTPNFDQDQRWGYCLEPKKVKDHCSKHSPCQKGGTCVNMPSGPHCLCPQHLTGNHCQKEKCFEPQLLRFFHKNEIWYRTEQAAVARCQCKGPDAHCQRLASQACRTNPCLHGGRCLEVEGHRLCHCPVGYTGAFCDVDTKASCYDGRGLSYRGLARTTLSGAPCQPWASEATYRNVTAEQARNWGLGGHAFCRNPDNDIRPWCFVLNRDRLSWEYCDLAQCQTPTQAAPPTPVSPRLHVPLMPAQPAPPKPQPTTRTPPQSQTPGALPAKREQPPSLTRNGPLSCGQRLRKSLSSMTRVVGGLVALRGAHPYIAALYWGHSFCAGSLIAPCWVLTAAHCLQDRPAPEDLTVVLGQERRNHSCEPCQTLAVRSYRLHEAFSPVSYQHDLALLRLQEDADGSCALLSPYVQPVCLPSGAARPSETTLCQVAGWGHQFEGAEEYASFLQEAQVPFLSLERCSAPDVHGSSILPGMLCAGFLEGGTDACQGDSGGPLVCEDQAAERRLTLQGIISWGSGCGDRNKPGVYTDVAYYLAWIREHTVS", "assay_type": "functional"}, "[2]": {"target": "DNA damage-inducible transcript 3 protein (Mus musculus, UniProt P35639)", "sequence (P35639 whole entry)": "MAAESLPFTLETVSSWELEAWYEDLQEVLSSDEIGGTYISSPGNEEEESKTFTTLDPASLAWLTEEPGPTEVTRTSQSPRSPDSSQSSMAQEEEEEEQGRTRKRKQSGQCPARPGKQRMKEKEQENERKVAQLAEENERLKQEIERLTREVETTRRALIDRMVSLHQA", "assay_type": "functional, Cricetulus griseus"}, "[3]": {"test": "growth suppression of PTEN-null colon cells, dose response, cell-based, HCT116 PTEN knockout (AID 1047);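 also: cells exposed to compound for 60 hours before readout; potency for loss of cell viability measured by luminescence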", "assay_type": "functional"}, "[4]": {"test": "growth suppression of beta-catenin-knockout colon cells, dose response, cell-based, HCT116, human colon tumor (AID 1045);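 also: cells exposed to compound for 60 hours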", "assay_type": "functional"}, "[5]": {"test": "cytotoxicity in OV-90 ovarian cancer cells, dose response, PAX8 inhibitor project, cell-based, plate reader, dry powder, SA8 (AID 743149)", "assay_type": "functional"}, "[6]": {"test": "cytotoxicity in COV362 ovarian cancer cells, dose response, cytotoxicity control for PAX8 inhibitor project, cell-based, plate reader, dry powder, SA12 (AID 743144)", "assay_type": "functional"}, "[7]": {"test": "PAX5 activity inhibitors, dose response, selectivity assay for PAX8 inhibitor project, cell-based, plate reader, dry powder samples (AID 743047);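 also: HEK293 cells carrying a Pax5 driven CD19 promoter luciferase reporter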", "assay_type": "functional"}, "[8]": {"test": "cytotoxicity in COV434 cells, dose response, cytotoxicity control for PAX8 inhibitor project, cell-based, plate reader, dry powder, SA7 (AID 743145)", "assay_type": "functional"}, "[9]": {"test": "NIH:OVCAR-3 ovarian cancer cell cytotoxicity, dose response, PAX8 inhibitor project, plate reader, dry powder samples (AID 743044)", "assay_type": "functional, cell-based"}, "Paired box protein Pax-8": {"target": "Paired box protein Pax-8 (Homo sapiens, UniProt Q06710)", "sequence (Q06710 whole entry)": "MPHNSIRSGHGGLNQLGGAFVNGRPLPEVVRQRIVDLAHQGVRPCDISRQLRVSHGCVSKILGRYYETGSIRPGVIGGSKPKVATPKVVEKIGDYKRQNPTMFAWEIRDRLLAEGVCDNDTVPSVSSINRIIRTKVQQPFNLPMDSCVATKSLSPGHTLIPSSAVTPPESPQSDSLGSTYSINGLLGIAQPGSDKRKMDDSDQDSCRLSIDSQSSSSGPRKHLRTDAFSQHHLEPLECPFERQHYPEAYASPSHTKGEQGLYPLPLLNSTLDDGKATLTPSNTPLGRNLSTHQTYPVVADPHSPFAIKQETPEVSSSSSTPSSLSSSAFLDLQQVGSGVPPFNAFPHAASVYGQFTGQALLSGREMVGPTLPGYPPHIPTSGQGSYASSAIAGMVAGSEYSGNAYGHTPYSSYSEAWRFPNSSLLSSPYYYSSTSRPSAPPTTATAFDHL", "test": "inhibitors of PAX8-driven TPO luciferase reporter, dose response, RMG-I cells, cherry-pick (AID 687027);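 also: luciferase reporter driven by Pax8 target thyroperoxidase promoter measured by SteadyGlo luminescence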", "assay_type": "functional, cell-based"}, "[10]": {"test": "PAX2 cell-based inhibition, dose response, selectivity assay for PAX8 inhibitor project, plate reader, dry powder samples (AID 743048);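 also: HEK293 cells carrying a WT1 promoter luciferase reporter driven by expressed Pax2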", "assay_type": "functional"}, "[11]": {"test": "cytotoxicity dependent on PAX8, dose response, cell-based, plate reader, dry powder (AID 743049)", "assay_type": "functional"}, "[12]": {"test": "Glucagon-like peptide 1 release potency, NCI-H716 cell line, dose-response, half-maximal inhibitory concentration (AID 1117344)", "assay_type": "functional, cell-based"}, "[13]": {"test": "half-maximal inhibitory concentration for glucagon-like peptide-1 release, STC-1 cell line, dose-response (AID 1117345)", "assay_type": "functional, cell-based"}, "[14]": {"target": "T3, Oxysterols receptor LXR-beta (Homo sapiens, UniProt P55055)", "T3 sequence (P55055 whole entry)": "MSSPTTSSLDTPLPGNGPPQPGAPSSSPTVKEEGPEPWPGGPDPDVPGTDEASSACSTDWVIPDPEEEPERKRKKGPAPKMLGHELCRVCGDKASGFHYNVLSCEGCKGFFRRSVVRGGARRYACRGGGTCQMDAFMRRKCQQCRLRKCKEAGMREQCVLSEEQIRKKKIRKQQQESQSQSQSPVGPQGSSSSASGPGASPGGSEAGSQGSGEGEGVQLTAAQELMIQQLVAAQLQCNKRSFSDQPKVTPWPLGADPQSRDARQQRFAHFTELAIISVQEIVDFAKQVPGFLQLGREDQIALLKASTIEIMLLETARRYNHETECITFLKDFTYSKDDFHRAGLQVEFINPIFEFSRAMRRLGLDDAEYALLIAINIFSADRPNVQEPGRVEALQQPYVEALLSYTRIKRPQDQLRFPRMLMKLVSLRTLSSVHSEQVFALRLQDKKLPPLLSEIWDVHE", "assay_type": "functional, cell-based"}, "[15]": {"test": "growth inhibition of intracellular T. cruzi, dose response, cell-based, plate reader, dry powder samples (AID 651845)", "assay_type": "functional"}, "[16]": {"test": "T. cruzi intracellular amastigote growth inhibition, dose response, imaging, CA-I/72 strain, bovine embryo skeletal muscle, dry powder (AID 651885)", "assay_type": "functional, cell-based"}, "[17]": {"test": "P. falciparum Dd2 growth inhibitors, dose response, SYBR Green, dry powder samples, set 9 (AID 1159568)", "assay_type": "functional, cell-based"}, "[18]": {"test": "cytotoxicity toward NIH3T3 fibroblasts, dose response, counter-screen, cell-based, ATP luminescence, mouse fibroblasts (AID 2010);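 also: cells exposed to compound for about 90 hours before reading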", "assay_type": "functional"}, "[19]": {"target": "T4, Probable nicotinate-nucleotide adenylyltransferase (Staphylococcus aureus (strain N315), UniProt P65502)", "T4 sequence (P65502 whole entry)": "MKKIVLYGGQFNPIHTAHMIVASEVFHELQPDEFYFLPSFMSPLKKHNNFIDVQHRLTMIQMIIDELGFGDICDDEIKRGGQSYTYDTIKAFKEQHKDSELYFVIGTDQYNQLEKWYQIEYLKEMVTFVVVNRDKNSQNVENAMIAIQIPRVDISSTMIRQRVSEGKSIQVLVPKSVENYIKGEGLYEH", "assay_type": "functional, Staphylococcus aureus subsp. aureus N315", "conditions": "read-out: IC50_Mean"}, "[20]": {"test": "inhibitors of intracellular T. cruzi replication, confirmation, NIH3T3 host cells, beta-gal luminescence (AID 2044);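 also: luminescent beta-galactosidase reporter signal from transgenic T. cruzi replicating inside host cells; inhibitors lower the luminescence signal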", "assay_type": "functional, cell-based"}, "Genome polyprotein": {"target": "Genome polyprotein (Hepatitis C virus, UniProt Q2Q167)", "sequence (Q2Q167 whole entry)": "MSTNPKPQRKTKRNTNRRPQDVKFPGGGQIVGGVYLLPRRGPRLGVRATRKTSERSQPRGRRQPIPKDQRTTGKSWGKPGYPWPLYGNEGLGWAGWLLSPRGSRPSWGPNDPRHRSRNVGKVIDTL", "test": "HCV core protein dimerization inhibitors, dose response, biochemical, TR-FRET (AID 2159);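 also: blocks dimerization of HCV core protein measured by TR-FRET between tagged core106 pairs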", "parameters": "species or system Hepacivirus hominis"}, "[21]": {"target": "T4, Probable nicotinate-nucleotide adenylyltransferase", "assay_type": "functional, Staphylococcus aureus subsp. aureus N315"}, "Estrogen receptor beta": {"target": "Estrogen receptor beta (Homo sapiens, UniProt Q92731)", "sequence (Q92731 whole entry)": "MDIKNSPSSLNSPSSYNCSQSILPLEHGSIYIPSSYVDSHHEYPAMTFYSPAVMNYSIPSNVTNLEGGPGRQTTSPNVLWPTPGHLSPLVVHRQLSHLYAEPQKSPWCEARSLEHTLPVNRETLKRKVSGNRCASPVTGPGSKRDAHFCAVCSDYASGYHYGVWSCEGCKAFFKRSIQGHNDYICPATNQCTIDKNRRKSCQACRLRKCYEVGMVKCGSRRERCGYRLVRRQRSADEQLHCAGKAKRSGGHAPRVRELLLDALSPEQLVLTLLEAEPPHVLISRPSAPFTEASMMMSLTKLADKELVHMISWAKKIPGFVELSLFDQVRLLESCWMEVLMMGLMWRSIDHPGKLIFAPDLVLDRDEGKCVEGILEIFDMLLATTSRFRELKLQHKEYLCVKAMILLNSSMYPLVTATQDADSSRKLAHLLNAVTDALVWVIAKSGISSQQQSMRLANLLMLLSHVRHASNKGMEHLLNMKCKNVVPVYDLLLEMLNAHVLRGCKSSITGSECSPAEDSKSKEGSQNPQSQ"}}, "note": "Calls of active or inactive are those of the source.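 For IC50 Mean in this document: confirmatory dose-response retesting of NadD inhibitor hits first found in an ultra-high-throughput screen.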", "data": [{"smiles": "COc1cc(C(=O)O/N=C2\\C=CC(=O)C(C)=C2)cc(OC)c1OC", "values": [{"measurement": "IC50", "setting": "[1]", "result": "> 50 µM (not active)"}, {"measurement": "IC50", "setting": "Coagulation factor XII", "result": "623 nM (active)"}, {"measurement": "Absolute IC50 (CHOP)", "setting": "[2]", "result": 10, "unit": "µM"}, {"measurement": "EC50", "setting": "[3]", "result": "5.17 µM (active)"}, {"measurement": "EC50", "setting": "[4]", "result": "3.63 µM (active)"}]}, {"smiles": "CCCC#Cc1ccc([C@@H]2[C@H](C#N)N(S(=O)(=O)c3cccc(F)c3)[C@H]2CO)cc1", "values": [{"measurement": "AC50", "setting": "[5]", "result": "26.9 µM (active)"}, {"measurement": "AC50", "setting": "[6]", "result": "35.2 µM (active)"}, {"measurement": "AC50", "setting": "[7]", "result": "14.2 µM (active)"}, {"measurement": "AC50", "setting": "[8]", "result": "63.8 µM (active)"}, {"measurement": "AC50", "setting": "[9]", "result": "31.9 µM (active)"}, {"measurement": "AC50", "setting": "Paired box protein Pax-8", "result": "5.57 µM (active)"}, {"measurement": "AC50", "setting": "[10]", "result": "15.6 µM (active)"}, {"measurement": "AC50", "setting": "[11]", "result": "17 µM (active)"}]}, {"smiles": "CCCOC(C(=O)OC1CCN(C)CC1)(c1ccccc1)c1ccccc1", "values": [{"measurement": "IC50", "setting": "[12]", "result": "> 40 µM (inactive)"}, {"measurement": "IC50", "setting": "[13]", "result": "23.8 µM (inactive)"}]}, {"smiles": "Oc1cccc(-c2nnc(-c3cccc(O)c3)nn2)c1", "values": [{"measurement": "EC50", "setting": "[14]", "result": "> 67.6 µM (inactive)"}, {"measurement": "EC50", "setting": "cells", "result": "> 67.6 µM (inactive)"}]}, {"smiles": "C[C@@H]1CN([C@@H](C)CO)C(=O)c2cccc(NC(=O)c3ccncc3)c2O[C@H]1CN(C)Cc1ccccc1Cl", "values": [{"measurement": "AC50", "setting": "[15]", "result": "158 nM (active)"}, {"measurement": "IC50", "setting": "[16]", "result": "11.4 nM (active)"}]}, {"smiles": "CCCNC(=O)N1[C@H](C#N)[C@H](c2ccccc2-c2ccc(OC)cc2)[C@@H]1CO", "values": [{"measurement": "AC50", "setting": "[17]", "result": "3.54 µM (active)"}]}, {"smiles": "Cc1ccc(C2CC(c3cccs3)=NN2C(=O)CSc2nc(=O)n3ccc(C)cc3n2)cc1", "note": "(configuration not stated)", "values": [{"measurement": "EC50", "setting": "[18]", "result": "> 60 µM (not active)"}, {"measurement": "IC50", "setting": "[19]", "result": "25.4 µM (active)"}, {"measurement": "EC50", "setting": "[20]", "result": "2.54 µM (active)"}, {"measurement": "IC50", "setting": "Genome polyprotein", "result": "> 49.8 µM (not active)"}, {"measurement": "IC50", "setting": "[21]", "result": "5.52 µM (active)"}]}, {"smiles": "CCC(=O)Nc1ccc(C(=O)Cn2nc(C(=O)O)c3ccccc3c2=O)cc1", "values": [{"measurement": "IC50", "setting": "Estrogen receptor beta", "result": "5.09 µM (active)"}]}, {"smiles": "C[C@H]1CN([C@@H](C)CO)C(=O)c2cccc(NC(=O)c3ccc(-c4nccs4)cc3)c2O[C@@H]1CN(C)C(=O)Nc1ccc(C(F)(F)F)cc1", "values": [{"measurement": "AC50", "setting": "[17]", "result": "9.87 µM (active)"}]}]}
